Test results from ChEMBL document CHEMBL1201862, “PubChem BioAssay data set” (2004).
The source made the active and inactive calls.

Legend:
[1] = Luminescence Cell-Based Dose Confirmation to Identify Activators of 5'UTR Stem-Loop Driven Alpha-Synuclein mRNA Translation in H4 Neuroglioblastoma Cells. [Related pubchem assays: 1829 (Project Summary), 1814 (Primary HTS)]; format: functional
[2] = C. albicans growth with fluconazole, confirmation, fluorescence, retest (AID 2467); format: functional, cell-based
[3] = NIH-3T3 fibroblast cytotoxicity, dose response, cytotoxicity control, cell-based, fluorescence, Alamar Blue, secondary assay (AID 2327); format: functional;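 also: NIH-3T3 mouse fibroblasts cultured with fluconazole at 8 µg/mL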
H4 = test: Luminescence Cell-Based Dose Response HTS to Identify Activators of 5'UTR Stem-Loop Driven Prion Protein mRNA Translation in H4 Neuroglioblastoma Cells. [Related pubchem assays: 1829 (Project Summary), 1814 (Primary HTS)]; format: functional; conditions: Homo sapiens
[4] = Luminescence Cell-Based Dose Response HTS to Identify Activators of Luciferase Translation or Activity in H4 […] Cells. [Related pubchem assays: 1829 (Project Summary), 1814 (Primary HTS)]; format: functional
[5] = Luminescence Cell-Based Dose Response to Identify Activators of Luciferase Translation or Activity in H4-C Neuroglioblastoma Cells. [Related pubchem assays: 1829 (Project Summary), 1814 (Primary HTS)]; format: functional
[6] = Luminescence Cell-Based Dose Response to Identify Activators of 5'UTR Stem-Loop Driven Prion Protein mRNA Translation in H4-C Neuroglioblastoma Cells. [Related pubchem assays: 1829 (Project Summary), 1814 (Primary HTS)]; format: functional
Vero [7] = test: Vero cell cytotoxicity, cytotoxicity control for flavivirus capping enzyme inhibitors (AID 588742); format: functional; conditions: Chlorocebus sabaeus
[8] = target: Peroxisome proliferator-activated receptor gamma/Nuclear receptor coactivator 2 (Homo sapiens, UniProt P37231); test: (§1) TR-FRET dose response biochemical High Throughput Screening assay for agonists of the steroid receptor coactivator 2 (SRC-2) recruitment by the peroxisome proliferator-activated receptor gamma (PPAR gamma): non-selective agonists. [Related pubchem assays: 1297, 1032 ]; format: functional
[9] = target: Peroxisome proliferator-activated receptor gamma/Nuclear receptor coactivator 3 (Homo sapiens, UniProt P37231); test: as §1, with “3 (SRC-3)” for “2 (SRC-2)”, “1301 (Confirmation screen.), 1048 (Primary screen.)]” for “1297, 1032 ]”; format: functional
Keap1/Nrf2 = Keap1/Nrf2 (Homo sapiens, UniProt Q14145); test: Keap1-Nrf2 protein-protein interaction inhibitors, dose response, biochemical, fluorescence polarization, cherry-picked samples (AID 588683)
Keap1/Nrf2, sequence (Q16236 whole entry): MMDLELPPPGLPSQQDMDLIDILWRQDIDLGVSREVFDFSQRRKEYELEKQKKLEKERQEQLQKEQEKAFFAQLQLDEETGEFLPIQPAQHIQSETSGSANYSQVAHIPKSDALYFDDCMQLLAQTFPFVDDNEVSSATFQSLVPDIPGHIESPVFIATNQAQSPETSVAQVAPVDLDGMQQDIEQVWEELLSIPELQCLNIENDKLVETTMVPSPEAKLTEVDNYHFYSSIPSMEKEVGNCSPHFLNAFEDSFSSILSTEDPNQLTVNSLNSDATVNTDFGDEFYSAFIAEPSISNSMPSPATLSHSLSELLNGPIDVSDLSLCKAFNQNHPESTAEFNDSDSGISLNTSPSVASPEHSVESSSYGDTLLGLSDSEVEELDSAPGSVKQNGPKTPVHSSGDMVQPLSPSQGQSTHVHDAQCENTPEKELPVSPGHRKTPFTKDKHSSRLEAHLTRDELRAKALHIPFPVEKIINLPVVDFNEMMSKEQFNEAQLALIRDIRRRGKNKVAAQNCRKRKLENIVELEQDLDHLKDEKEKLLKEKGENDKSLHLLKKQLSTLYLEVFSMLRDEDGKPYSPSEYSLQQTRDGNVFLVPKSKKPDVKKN
Keap1/Nrf2, sequence (Q14145 whole entry): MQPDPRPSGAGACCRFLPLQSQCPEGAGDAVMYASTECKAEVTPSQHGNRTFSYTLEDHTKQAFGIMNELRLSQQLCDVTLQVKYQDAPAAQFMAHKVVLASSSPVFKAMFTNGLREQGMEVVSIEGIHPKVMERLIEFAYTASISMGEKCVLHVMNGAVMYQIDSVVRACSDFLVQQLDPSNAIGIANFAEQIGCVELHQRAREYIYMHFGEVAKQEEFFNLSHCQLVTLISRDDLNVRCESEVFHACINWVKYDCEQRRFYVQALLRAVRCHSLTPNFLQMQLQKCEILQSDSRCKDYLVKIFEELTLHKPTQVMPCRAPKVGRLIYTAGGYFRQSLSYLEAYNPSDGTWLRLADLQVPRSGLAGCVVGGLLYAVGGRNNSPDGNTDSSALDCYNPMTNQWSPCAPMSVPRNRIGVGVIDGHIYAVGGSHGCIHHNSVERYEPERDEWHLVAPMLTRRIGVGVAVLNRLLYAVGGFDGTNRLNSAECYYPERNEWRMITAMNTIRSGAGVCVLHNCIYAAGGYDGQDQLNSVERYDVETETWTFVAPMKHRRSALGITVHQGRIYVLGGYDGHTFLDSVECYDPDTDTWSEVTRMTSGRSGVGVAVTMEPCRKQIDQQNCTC

[10] = target: UDP-galactopyranose mutase (Mycobacterium tuberculosis, UniProt P9WIQ1); test: Inhibitors of Mycobacterium tuberculosis UDP-galactopyranose mutase (UGM) enzyme Measured in Biochemical System Using Plate Reader - 2105-02_Inhibitor_Dose_CherryPick_Activity. [Related pubchem assays (depositor defined):AID504439]
UDP-galactopyranose mutase, sequence (P9WIQ1 whole entry): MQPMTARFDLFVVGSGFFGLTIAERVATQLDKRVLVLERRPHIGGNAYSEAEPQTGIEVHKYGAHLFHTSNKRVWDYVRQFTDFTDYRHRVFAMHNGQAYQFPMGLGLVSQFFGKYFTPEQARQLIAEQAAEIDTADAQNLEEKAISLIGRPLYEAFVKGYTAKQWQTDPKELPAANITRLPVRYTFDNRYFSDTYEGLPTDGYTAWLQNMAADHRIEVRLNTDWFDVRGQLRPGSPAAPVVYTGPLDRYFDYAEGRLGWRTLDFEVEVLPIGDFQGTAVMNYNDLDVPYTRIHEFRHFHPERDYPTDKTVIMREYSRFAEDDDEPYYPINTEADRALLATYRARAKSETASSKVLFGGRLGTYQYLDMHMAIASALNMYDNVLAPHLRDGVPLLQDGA

[11] = target: T1, Zinc finger protein mex-5 (Caenorhabditis elegans, UniProt Q9XUB2); test: MEX-5/TCR-2 RNA interaction inhibitors, dose response, biochemical, C. elegans, fluorescence polarization (AID 1960)
T1 sequence (Q9XUB2 whole entry): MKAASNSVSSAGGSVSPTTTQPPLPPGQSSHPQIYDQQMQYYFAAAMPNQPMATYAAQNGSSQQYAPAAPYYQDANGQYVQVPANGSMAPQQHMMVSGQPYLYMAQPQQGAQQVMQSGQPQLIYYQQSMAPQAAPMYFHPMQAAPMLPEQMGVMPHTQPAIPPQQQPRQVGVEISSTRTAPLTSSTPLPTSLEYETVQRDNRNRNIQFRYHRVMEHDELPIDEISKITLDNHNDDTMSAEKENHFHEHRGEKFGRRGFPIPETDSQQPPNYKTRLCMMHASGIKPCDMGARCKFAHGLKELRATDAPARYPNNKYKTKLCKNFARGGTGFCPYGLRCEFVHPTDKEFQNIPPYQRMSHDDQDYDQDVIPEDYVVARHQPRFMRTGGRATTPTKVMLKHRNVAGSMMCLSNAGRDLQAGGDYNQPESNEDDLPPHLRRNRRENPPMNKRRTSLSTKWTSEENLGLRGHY

[12] = target: Mitogen-activated protein kinase 10 (Homo sapiens, UniProt P53779); test: Dose response biochemical screening assay for inhibitors of c-Jun N-Terminal Kinase 3 (JNK3). [Related pubchem assays: 746 ]
Mitogen-activated protein kinase 10, sequence (P53779 whole entry, the tested form may be a part): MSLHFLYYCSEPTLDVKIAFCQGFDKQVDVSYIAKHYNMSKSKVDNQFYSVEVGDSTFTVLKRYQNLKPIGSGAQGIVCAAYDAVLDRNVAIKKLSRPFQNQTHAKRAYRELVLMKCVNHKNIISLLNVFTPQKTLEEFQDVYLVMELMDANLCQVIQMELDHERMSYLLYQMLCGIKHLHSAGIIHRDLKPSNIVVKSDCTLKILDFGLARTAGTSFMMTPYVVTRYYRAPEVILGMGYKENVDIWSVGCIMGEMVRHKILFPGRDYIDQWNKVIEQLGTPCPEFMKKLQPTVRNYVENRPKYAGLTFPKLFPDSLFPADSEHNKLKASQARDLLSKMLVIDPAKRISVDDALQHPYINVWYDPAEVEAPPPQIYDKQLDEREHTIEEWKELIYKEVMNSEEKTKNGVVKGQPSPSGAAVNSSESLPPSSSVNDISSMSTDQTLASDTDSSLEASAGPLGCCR

[13] = target: T2, RNA-binding protein pos-1 (Caenorhabditis elegans, UniProt G5EF15); test: inhibitors of POS-1/mex-3 RNA binding, dose response, biochemical, fluorescence polarization (AID 1964);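 also: purified POS-1 fused to maltose binding protein made in E. coli; potency of compounds blocking POS-1 binding to fluorescent RNA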
T2 sequence (G5EF15 whole entry): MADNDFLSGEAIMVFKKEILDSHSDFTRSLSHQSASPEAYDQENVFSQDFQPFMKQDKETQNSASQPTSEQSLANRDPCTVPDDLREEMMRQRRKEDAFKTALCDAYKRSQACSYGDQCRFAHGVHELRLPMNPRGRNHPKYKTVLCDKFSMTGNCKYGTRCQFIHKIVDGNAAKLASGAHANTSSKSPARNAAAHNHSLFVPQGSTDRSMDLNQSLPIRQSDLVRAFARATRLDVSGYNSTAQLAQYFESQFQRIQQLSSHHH

ORF 73 = target: T3, ORF 73 (Human herpesvirus 8, UniProt O40947); test: inhibitors of C-LANA binding to LBS DNA, dose response, biochemical, fluorescence polarization, cherry-picked samples (AID 504725); set-up: species or system Human gammaherpesvirus 8;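 also: fluorescence polarization of a labeled DNA duplex reporting LANA DNA binding; potency is for inhibitors that block LANA binding to the DNA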
T3 sequence (O40947 whole entry): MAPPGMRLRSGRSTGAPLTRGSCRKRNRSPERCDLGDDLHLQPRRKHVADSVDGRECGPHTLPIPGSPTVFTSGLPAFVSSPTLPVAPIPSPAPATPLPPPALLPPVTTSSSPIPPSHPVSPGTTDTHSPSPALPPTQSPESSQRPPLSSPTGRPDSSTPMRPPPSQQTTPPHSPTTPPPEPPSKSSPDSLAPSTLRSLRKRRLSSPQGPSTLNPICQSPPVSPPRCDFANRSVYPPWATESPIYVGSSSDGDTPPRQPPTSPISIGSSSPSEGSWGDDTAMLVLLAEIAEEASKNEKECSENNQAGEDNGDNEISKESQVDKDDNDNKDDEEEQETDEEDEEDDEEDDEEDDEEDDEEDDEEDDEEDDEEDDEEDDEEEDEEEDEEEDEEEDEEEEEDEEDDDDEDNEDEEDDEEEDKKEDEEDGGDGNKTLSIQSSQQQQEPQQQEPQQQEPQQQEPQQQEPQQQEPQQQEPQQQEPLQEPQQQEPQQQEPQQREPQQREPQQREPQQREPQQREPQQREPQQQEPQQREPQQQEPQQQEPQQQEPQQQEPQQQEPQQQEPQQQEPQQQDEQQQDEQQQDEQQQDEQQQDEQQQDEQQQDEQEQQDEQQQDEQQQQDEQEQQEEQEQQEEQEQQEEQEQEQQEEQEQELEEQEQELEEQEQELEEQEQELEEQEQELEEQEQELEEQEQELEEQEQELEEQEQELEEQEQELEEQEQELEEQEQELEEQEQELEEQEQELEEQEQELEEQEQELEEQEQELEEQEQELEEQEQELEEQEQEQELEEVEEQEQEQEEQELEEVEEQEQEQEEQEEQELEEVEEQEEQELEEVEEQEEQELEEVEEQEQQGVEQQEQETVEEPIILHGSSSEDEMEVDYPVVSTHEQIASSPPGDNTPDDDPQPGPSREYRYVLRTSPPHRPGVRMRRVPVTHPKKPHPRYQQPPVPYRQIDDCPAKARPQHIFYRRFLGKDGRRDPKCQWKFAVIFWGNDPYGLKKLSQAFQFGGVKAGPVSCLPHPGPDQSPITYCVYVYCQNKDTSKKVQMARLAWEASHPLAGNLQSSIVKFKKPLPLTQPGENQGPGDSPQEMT

HeLa = test: HeLa cell cytotoxicity, dose response, cytotoxicity control, 24 h, cherry-picked samples (AID 504726); format: functional, cell-based; conditions: Homo sapiens;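 also: potency for cytotoxicity as loss of luminescence signal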
14-3-3 protein gamma = 14-3-3 protein gamma (Homo sapiens, UniProt P61981); test: modulators of 14-3-3 gamma client binding – dose response (AID 711); format: functional
14-3-3 protein gamma, sequence (P61981 whole entry): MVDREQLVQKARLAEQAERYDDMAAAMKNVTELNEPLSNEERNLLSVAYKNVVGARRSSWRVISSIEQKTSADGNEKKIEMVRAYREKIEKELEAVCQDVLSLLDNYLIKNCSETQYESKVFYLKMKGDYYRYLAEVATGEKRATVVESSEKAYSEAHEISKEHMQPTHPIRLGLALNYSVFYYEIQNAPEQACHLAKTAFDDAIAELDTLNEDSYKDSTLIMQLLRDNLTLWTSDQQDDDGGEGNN

[14] = target: Peroxisome proliferator-activated receptor gamma/Nuclear receptor coactivator 1 (Homo sapiens, UniProt P37231); test: as §1, with “1 (SRC-1)” for “2 (SRC-2)”, “assays (depositor defined):AID1300, AID1808, AID504735, AID631]” for “assays: 1297, 1032 ]”; format: protein assay
Peroxisome proliferator-activated receptor gamma/Nuclear receptor coactivator 1, sequence (P37231 whole entry): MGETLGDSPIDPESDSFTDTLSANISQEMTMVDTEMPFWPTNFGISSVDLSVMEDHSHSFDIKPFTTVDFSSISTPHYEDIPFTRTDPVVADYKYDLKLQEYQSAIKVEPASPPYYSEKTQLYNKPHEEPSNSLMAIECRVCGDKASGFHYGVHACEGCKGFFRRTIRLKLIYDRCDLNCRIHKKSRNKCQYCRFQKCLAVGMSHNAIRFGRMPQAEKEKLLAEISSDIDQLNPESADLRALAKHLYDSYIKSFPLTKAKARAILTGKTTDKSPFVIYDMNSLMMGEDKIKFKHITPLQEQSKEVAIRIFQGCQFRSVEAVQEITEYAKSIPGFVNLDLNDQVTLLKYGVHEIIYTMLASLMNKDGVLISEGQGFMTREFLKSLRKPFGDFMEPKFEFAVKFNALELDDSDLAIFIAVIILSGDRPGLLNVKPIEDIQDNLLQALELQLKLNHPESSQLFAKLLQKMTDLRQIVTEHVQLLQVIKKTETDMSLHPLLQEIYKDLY
Peroxisome proliferator-activated receptor gamma/Nuclear receptor coactivator 1, sequence (Q15788 whole entry, further chain): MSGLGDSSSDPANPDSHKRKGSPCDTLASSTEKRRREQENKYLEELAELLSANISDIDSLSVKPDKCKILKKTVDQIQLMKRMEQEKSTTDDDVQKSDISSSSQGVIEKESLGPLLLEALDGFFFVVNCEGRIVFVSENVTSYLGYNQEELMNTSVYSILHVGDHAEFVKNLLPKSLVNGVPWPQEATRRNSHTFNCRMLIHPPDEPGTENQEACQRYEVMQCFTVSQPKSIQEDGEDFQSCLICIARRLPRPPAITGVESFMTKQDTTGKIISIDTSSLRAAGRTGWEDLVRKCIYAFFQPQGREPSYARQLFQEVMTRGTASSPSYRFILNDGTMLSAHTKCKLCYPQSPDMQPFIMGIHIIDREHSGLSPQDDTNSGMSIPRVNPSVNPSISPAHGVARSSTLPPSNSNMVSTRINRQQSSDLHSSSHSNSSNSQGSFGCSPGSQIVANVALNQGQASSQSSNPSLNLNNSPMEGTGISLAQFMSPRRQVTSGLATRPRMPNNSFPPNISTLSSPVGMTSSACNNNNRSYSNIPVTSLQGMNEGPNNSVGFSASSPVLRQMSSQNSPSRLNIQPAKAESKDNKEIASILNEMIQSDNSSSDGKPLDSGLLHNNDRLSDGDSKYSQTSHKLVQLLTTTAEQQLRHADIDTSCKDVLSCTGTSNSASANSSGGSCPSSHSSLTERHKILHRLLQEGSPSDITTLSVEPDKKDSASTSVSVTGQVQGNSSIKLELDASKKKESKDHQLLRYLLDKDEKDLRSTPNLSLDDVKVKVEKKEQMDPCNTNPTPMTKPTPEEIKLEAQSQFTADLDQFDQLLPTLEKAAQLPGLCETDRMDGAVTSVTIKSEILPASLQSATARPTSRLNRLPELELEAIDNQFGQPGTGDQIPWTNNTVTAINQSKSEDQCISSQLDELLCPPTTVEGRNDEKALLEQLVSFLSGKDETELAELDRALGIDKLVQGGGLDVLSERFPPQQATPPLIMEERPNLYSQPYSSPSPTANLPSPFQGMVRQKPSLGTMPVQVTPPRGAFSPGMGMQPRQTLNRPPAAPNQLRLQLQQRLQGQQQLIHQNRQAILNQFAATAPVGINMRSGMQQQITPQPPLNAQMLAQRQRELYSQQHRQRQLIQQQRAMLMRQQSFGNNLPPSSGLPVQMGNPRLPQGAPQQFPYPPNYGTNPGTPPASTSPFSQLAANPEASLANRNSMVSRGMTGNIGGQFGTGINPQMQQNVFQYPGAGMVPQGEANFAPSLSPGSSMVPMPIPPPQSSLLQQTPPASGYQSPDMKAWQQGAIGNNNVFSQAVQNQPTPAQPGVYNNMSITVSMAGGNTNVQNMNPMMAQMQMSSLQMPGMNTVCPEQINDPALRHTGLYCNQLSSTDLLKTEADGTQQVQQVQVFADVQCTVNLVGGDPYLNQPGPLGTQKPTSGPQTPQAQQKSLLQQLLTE

Bcl-2-related protein A1 [15] = target: T4, Bcl-2-related protein A1 (Mus musculus, UniProt Q07440); test: Bfl-1 binding inhibitors, SAR follow-up, biochemical, fluorescence polarization (AID 1070)
T4 sequence (Q07440 whole entry): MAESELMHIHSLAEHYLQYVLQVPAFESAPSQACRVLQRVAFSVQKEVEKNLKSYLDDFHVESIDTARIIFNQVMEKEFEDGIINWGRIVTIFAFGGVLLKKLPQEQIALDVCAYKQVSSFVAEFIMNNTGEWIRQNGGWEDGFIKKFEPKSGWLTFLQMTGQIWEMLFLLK

Bcl-2-related protein A1 [16] = target: T4, Bcl-2-related protein A1; test: Bfl-1 inhibitors blocking BH3 peptide binding, confirmation, biochemical, TR-FRET, mouse Bfl-1 (AID 621);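 also: TR-FRET binding of GST-Bfl-1 to FITC-labelled Bid peptide via terbium antibody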
INS1 = test: beta cell apoptosis inhibitors, cytokine rescue, dose response, luminescence, retest (AID 449756); format: functional, cell-based; conditions: Rattus norvegicus;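 also: cell death triggered by IL-1 beta plus TNF-alpha plus IFN-gamma mixture; protective hits raise ATP signal compared with cytokine alone wells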
Interleukin-8 [17] = target: T5, Interleukin-8 (Homo sapiens, UniProt P10145); test: Dose Response confirmation of uHTS small molecule hits for cystic fibrosis induced NFkb Inhibitors in a PAF-induced IL8 counterscreen.; format: functional; conditions: read-out: IC50_Mean
T5 sequence (P10145 whole entry): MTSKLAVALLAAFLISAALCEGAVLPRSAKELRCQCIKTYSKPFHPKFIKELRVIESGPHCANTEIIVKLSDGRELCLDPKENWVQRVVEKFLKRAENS

[18] = target: T6, Heat shock factor protein 1 (Mus musculus, UniProt P38532); test: HSF1 potentiators in luciferase reporter cells, confirmation, cell-based, NIH3T3, luminescence, dose retest (AID 435004); format: functional;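 also: stress induced by proteasome inhibitor MG132 added 30 min after compound; luciferase reporter driven by HSF1 response element in NIH3T3 cells; actives raise luminescence as potentiators of the MG132 stress response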
T6 sequence (P38532 whole entry): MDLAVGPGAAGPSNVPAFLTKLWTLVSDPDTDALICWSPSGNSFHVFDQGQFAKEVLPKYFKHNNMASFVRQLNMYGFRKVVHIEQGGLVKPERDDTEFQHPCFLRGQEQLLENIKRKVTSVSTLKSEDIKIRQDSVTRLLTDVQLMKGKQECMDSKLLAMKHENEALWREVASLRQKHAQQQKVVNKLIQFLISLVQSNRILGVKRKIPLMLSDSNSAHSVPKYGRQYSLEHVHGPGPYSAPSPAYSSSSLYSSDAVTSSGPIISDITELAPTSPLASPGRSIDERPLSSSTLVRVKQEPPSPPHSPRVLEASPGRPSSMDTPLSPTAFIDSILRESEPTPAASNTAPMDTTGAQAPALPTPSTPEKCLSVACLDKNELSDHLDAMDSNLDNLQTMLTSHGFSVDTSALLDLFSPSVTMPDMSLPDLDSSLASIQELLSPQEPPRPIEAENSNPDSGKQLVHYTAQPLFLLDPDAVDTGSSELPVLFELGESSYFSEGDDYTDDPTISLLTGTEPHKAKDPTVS

Vero [19] = test: host cell cytotoxicity of antiviral hits, dose response, cytotoxicity control for West Nile virus antiviral project, secondary assay (AID 1650); format: functional; conditions: Chlorocebus sabaeus
[20] = HepG2 cell cytotoxicity, dose response, cytotoxicity control for Shn3 inhibitor project, CellTiter-Glo, cherry-picked (AID 624134); format: functional, cell-based
[21] = Shn3 3'UTR reporter inhibitors, dose response, cell-based, Clone20 osteoblasts, firefly luciferase, cherry-picked (AID 624132); format: functional;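 also: firefly luciferase luminescence from reporter carrying the Shn3 3'UTR in osteoblasts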
Interleukin-8 [22] = target: T5, Interleukin-8; test: Dose Response confirmation of uHTS small molecule hits for cystic fibrosis induced NFkb Inhibitors in a TNFa-induced IL8 counterscreen.; format: functional; conditions: read-out: IC50_Mean
[23] = control 3'UTR Renilla luciferase suppression, dose response, counter-screen for Shn3 inhibitor project, cell-based, Clone20-Shn3RL, cherry-picked (AID 624133); format: functional

O=C(NNC(=O)c1cc2ccccc2cc1O)c1cccs1
EC50 [1]: 1.87 µM (active)
EC50 [2]: > 38 µM (not active)
EC50 [3]: > 150 µM (inactive)
EC50 (H4): > 120 µM (not active)
EC50 [4]: < 0.1 µM (active)
EC50 [5]: 1.47 µM (active)
EC50 [6]: 9.37 µM (active)
CC50 (Vero [7]): > 40 µM (active)

O=C1c2ccccc2-c2onc3ccc(NCc4ccco4)c1c23
EC50 [8]: 24.3 µM (not active)
EC50 [9]: > 79.4 µM (not active)
AC50 (Keap1/Nrf2): 1.26 µM (active)
AC50 [10]: 1.2 µM (active)
EC50 [11]: < 0.06 µM (inconclusive)
IC50 [12]: 24 µM (not active)
EC50 [13]: 0.173 µM (inconclusive)
AC50 (ORF 73): 7.42 µM (active)
AC50 (HeLa): 17.1 µM (active)
IC50 (14-3-3 protein gamma): < 44 µM (inconclusive)
EC50 [14]: > 79.4 µM (inactive)

COc1ccc2nc(O)c(-c3nnn(-c4ccccc4)n3)cc2c1
IC50 (Bcl-2-related protein A1 [15]): > 100 µM (not active)
IC50 (Bcl-2-related protein A1 [16]): > 100 µM (not active)

COc1ccc2c(c1OC)C(=O)OC2Nc1nc(-c2ccccc2)cs1 (centres undefined)
AC50 (INS1): 17.6 µM (active)
IC50 (Interleukin-8 [17]): 0.697 µM (active)
EC50 [18]: 13.6 µM (active)
CC50 (Vero [19]): 9.86 µM (active)
AC50 [20]: 58.8 µM (active)
AC50 [21]: 4.7 µM (active)
IC50 (Interleukin-8 [22]): 39.9 µM (inactive)
AC50 [23]: 17.7 µM (active)
